# Legend:
# [1] = test system: L. donovani HU3 strain in mouse peritoneal macrophages; assay: Assay for proliferation of Leishmania parasites in mouse peritoneal macrophages; format: cell-based, Leishmania donovani; conditions: Leishmania donovani, Peritoneal macrophage, read-out: L. donavani Macrophage EC50
# Outline: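 BALB/c peritoneal macrophages infected 24 h with L. donovani HU3 amastigotes taken from spleens of mice infected 9–11 weeks, then treated with compound for 5 days at 37° C, 5% CO2. Parasite nuclei counted by SYBR Green imaging after fixation; EC50 from percentage inhibition.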
# [2] = test system: Leishmania donovani axenic amastigote parasites; assay: Leishmania donovani axenic amastigote proliferation assay; format: cell-based; conditions: axenic amastigotes in vitro, read-out: L. donovani amastigotes EC50
# Outline: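 L. donovani axenic amastigotes (9600/well) in RPMI 1640 with 20% heat-inactivated FBS, folic acid, adenosine, glucose and 25 mM MES, pH 5.5, were incubated with compounds for 2 days at 37 °C, 5% CO2. Viability read by CellTiter-Glo luminescence; EC50 calculated.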
# [3] = test system: Trypanosoma brucei Lister 427 strain bloodstream form; assay: Assay for proliferation of kinetoplastid parasite Trypanosoma brucei; format: cell-based; conditions: Lister 427 bloodstream form, 48 hours, read-out: T. brucei EC50
# Description: Assay for Proliferation of Kinetoplastid Parasite Trypanosoma brucei.
# The proliferation is quantified by the addition of Cell Titer Glo (Promega®) a luminescent cell viability assay that measures the number of viable cells in culture based on the quantification of cellular ATP amount, which is an indicator of metabolically active cells.
# The following assay illustrates the invention without in any way limiting the scope of the invention. This parasite proliferation assay measures the increase in parasite growth using an assay that measures ATP activity, Cell Titer Glo®.
# Trypanosoma brucei Lister 427 strain is grown in HMI-9 Trypanosome media for T. brucei bloodstream form. 30 μl of HMI-9 media is dispensed into 384 well assay plates. 200 nl of compounds of the invention (in DMSO), including anti-trypanosome controls (Pentamidine and suramin), are then transferred into the assay plates, as well as DMSO alone to serve as a negative control for inhibition. Then 25 μl of a suspension of T. brucei culture in HMI-9 media is dispensed into the assay plates. The final concentration of parasites in culture corresponds to 1.7% of 0.5 uM ATP activity with Cell Titer Glo® in HMI-9 media. The plates are placed in a 37° C. incubator for 48 hours in an atmospheric environment containing 5% CO2. 40 μl of Cell Titer Glo® is dispensed into the plates. The plates are then read for luminescence. The percentage inhibition of 50%, EC50, is calculated for each compound.
compound,measurement,setting,value
Cc1cnc2nc(-c3cc(NC(=O)Cc4ncccn4)ccc3Cl)[nH]c2c1 [Compound 145],EC50,[1],> 50 µM
same,EC50,[2],> 25 µM
same,EC50,[3],16.1 µM
Cc1cnc2nc(-c3cc(NC(=O)Cc4onc5ccccc45)ccc3Cl)[nH]c2c1 [Compound 146],EC50,[1],21.7 µM
same,EC50,[2],> 25 µM
same,EC50,[3],> 14.2 µM
Cc1cnc2nc(-c3cc(NC(=O)c4ccno4)ccc3Cl)[nH]c2c1 [Compound 155],EC50,[1],> 39.7 µM
same,EC50,[2],7.2 µM
same,EC50,[3],4.3 µM
COc1ccc(CC(=O)Nc2ccc(Cl)c(-c3nc4ncc(C)cc4[nH]3)c2)cc1 [Compound 156],EC50,[1],27.2 µM
same,EC50,[2],> 25 µM
same,EC50,[3],> 14.2 µM
Cc1cnc2nc(-c3cc(NC(=O)c4cc[nH]n4)ccc3Cl)[nH]c2c1 [Compound 157],EC50,[1],> 34.6 µM
same,EC50,[2],> 25 µM
same,EC50,[3],12.8 µM
Cc1cnc2nc(-c3cc(NC(=O)c4cc(C5CC5)n[nH]4)ccc3Cl)[nH]c2c1 [Compound 158],EC50,[1],> 50 µM
same,EC50,[2],> 25 µM
same,EC50,[3],13 µM
Cc1cnc2nc(-c3cc(NC(=O)CCCN(C)C)ccc3Cl)[nH]c2c1 [Compound 159],EC50,[1],> 50 µM
same,EC50,[2],> 25 µM
same,EC50,[3],> 12.2 µM
Cc1cnc2nc(-c3cc(NC(=O)C(c4ccccc4)C(C)C)ccc3Cl)[nH]c2c1 (stereo not drawn) [Compound 160],EC50,[1],20.3 µM
same,EC50,[2],> 24.6 µM
same,EC50,[3],12.4 µM
Cc1cnc2nc(-c3cc(NC(=O)c4noc(C)n4)ccc3Cl)[nH]c2c1 [Compound 161],EC50,[1],> 50 µM
same,EC50,[2],> 25 µM
same,EC50,[3],9.6 µM
Cc1cnc2nc(-c3cc(NC(=O)c4ccc(C(F)(F)F)nc4C)ccc3Cl)[nH]c2c1 [Compound 162],EC50,[1],> 50 µM
same,EC50,[2],> 25 µM
same,EC50,[3],1.23 µM
Cc1cnc2nc(-c3cc(NC(=O)C4(C)COC4)ccc3Cl)[nH]c2c1 [Compound 163],EC50,[1],> 50 µM
same,EC50,[2],> 25 µM
same,EC50,[3],> 25 µM
Cc1cnc2nc(-c3cc(NC(=O)C(F)(F)c4ccccc4)ccc3Cl)[nH]c2c1 [Compound 164],EC50,[1],23.4 µM
same,EC50,[2],> 25 µM
same,EC50,[3],12.6 µM
COc1ccc(C(C)C(=O)Nc2ccc(Cl)c(-c3nc4ncc(C)cc4[nH]3)c2)cc1 (stereo not drawn) [Compound 165],EC50,[1],23.1 µM
same,EC50,[2],> 24.5 µM
same,EC50,[3],> 11.7 µM
Cc1cnc2nc(-c3cc(NC(=O)c4ccc(-c5cnccn5)cn4)ccc3Cl)[nH]c2c1 [Compound 166],EC50,[1],> 27.8 µM
same,EC50,[2],> 25 µM
same,EC50,[3],> 25 µM
Cc1ccc(CC(=O)Nc2ccc(Cl)c(-c3nc4ncc(C)cc4[nH]3)c2)cc1 [Compound 167],EC50,[1],16.1 µM
same,EC50,[2],> 25 µM
same,EC50,[3],> 11.5 µM
Cc1cnc2nc(-c3cc(NC(=O)Cn4cccnc4=O)ccc3Cl)[nH]c2c1 [Compound 168],EC50,[1],> 50 µM
same,EC50,[2],> 25 µM
same,EC50,[3],> 16.7 µM
Cc1cnc2nc(-c3cc(NC(=O)Cc4nnn[nH]4)ccc3Cl)[nH]c2c1 [Compound 169],EC50,[1],> 50 µM
same,EC50,[2],> 25 µM
same,EC50,[3],> 25 µM
Cc1cnc2nc(-c3cc(NC(=O)Cn4cnnn4)ccc3Cl)[nH]c2c1 [Compound 170],EC50,[1],> 50 µM
same,EC50,[2],> 25 µM
same,EC50,[3],> 25 µM
Cc1ccnc(C(=O)Nc2ccc(Cl)c(-c3nc4ncc(C)cc4[nH]3)c2)c1 [Compound 172],EC50,[1],23.7 µM
same,EC50,[2],> 25 µM
same,EC50,[3],> 15.8 µM
COc1ccnc(C(=O)Nc2ccc(Cl)c(-c3nc4ncc(C)cc4[nH]3)c2)c1 [Compound 173],EC50,[1],18.1 µM
same,EC50,[2],> 25 µM
same,EC50,[3],> 13.8 µM
Cc1cnc2nc(-c3cc(NC(=O)c4cnco4)ccc3Cl)[nH]c2c1 [Compound 177],EC50,[1],> 50 µM
same,EC50,[2],2.28 µM
same,EC50,[3],1.66 µM
Cc1cnc2nc(-c3cc(NC(=O)c4cnc(C)cn4)ccc3Cl)[nH]c2c1 [Compound 178],EC50,[1],> 50 µM
same,EC50,[2],23.8 µM
same,EC50,[3],15.2 µM
Cc1cnc2nc(-c3cc(NC(=O)c4nc(C)oc4C)ccc3Cl)[nH]c2c1 [Compound 179],EC50,[1],> 50 µM
same,EC50,[2],> 25 µM
same,EC50,[3],5 µM
Cc1cnc2nc(-c3cc(NC(=O)c4cccc5c4OCC5)ccc3Cl)[nH]c2c1 [Compound 180],EC50,[1],13.2 µM
same,EC50,[2],> 25 µM
same,EC50,[3],8.3 µM
CO[C@@H](C(=O)Nc1ccc(Cl)c(-c2nc3ncc(C)cc3[nH]2)c1)c1ccccc1 [Compound 181],EC50,[1],> 30.5 µM
same,EC50,[2],> 25 µM
same,EC50,[3],> 14.5 µM
Cc1cnc2nc(-c3cc(NC(=O)c4cccc(N(C)C)c4)ccc3Cl)[nH]c2c1 [Compound 184],EC50,[1],> 50 µM
same,EC50,[2],> 25 µM
same,EC50,[3],8.4 µM
Cc1cnc2nc(-c3cc(NC(=O)c4ccc(C(C)(C)C)o4)ccc3Cl)[nH]c2c1 [Compound 190],EC50,[1],20.2 µM
same,EC50,[2],> 24 µM
same,EC50,[3],5.8 µM
Cc1cnc2nc(-c3cc(NC(=O)c4sc(C)nc4C)ccc3Cl)[nH]c2c1 [Compound 191],EC50,[1],> 39.1 µM
same,EC50,[2],> 25 µM
same,EC50,[3],> 16.2 µM
Cc1cnc2nc(-c3cc(NC(=O)c4nccs4)ccc3Cl)[nH]c2c1 [Compound 192],EC50,[1],> 37.9 µM
same,EC50,[2],10.2 µM
same,EC50,[3],0.49 µM
Cc1cnc2nc(-c3cc(NC(=O)c4ccc(S(C)(=O)=O)cc4)ccc3Cl)[nH]c2c1 [Compound 193],EC50,[1],> 50 µM
same,EC50,[2],> 25 µM
same,EC50,[3],15.2 µM
Cc1cnc2nc(-c3cc(NC(=O)C(C)(C)N)ccc3Cl)[nH]c2c1 [Compound 194],EC50,[1],> 50 µM
same,EC50,[2],> 25 µM
same,EC50,[3],> 11.7 µM
Cc1cnc2nc(-c3cc(NC(=O)c4cc(Cl)cc(Cl)c4)ccc3Cl)[nH]c2c1 [Compound 196],EC50,[1],11 µM
same,EC50,[2],> 25 µM
same,EC50,[3],11.2 µM
Cc1cnc2nc(-c3cc(NC(=O)Cn4ccnc4)ccc3Cl)[nH]c2c1 [Compound 197],EC50,[1],> 50 µM
same,EC50,[2],> 25 µM
same,EC50,[3],> 22.3 µM
Cc1cnc2nc(-c3cc(NC(=O)C4CCc5ccccc5O4)ccc3Cl)[nH]c2c1 (stereo not drawn) [Compound 198],EC50,[1],> 28.7 µM
same,EC50,[2],> 25 µM
same,EC50,[3],8.4 µM
Cc1cnc2nc(-c3cc(NC(=O)C4CCCC4)ccc3Cl)[nH]c2c1 [Compound 199],EC50,[1],21.5 µM
same,EC50,[2],23.7 µM
same,EC50,[3],4.4 µM
Cc1cnc2nc(-c3cc(NC(=O)C4(C)CNC4)ccc3Cl)[nH]c2c1 [Compound 200],EC50,[1],> 50 µM
same,EC50,[2],> 25 µM
same,EC50,[3],> 9.6 µM
Cc1cnc2nc(-c3cc(NC(=O)Cc4ccccc4)ccc3Cl)[nH]c2c1 [Compound 202],EC50,[1],> 50 µM
same,EC50,[2],> 25 µM
same,EC50,[3],1.87 µM
Cc1cnc2nc(-c3cc(NC(=O)c4nc(C)n[nH]4)ccc3Cl)[nH]c2c1 [Compound 203],EC50,[1],> 50 µM
same,EC50,[2],> 25 µM
same,EC50,[3],> 25 µM
Cc1cnc2nc(-c3cc(NC(=O)c4cscn4)ccc3Cl)[nH]c2c1 [Compound 205],EC50,[1],> 46.3 µM
same,EC50,[2],14.3 µM
same,EC50,[3],1.26 µM
Cc1cnc2nc(-c3cc(NC(=O)c4cnccn4)ccc3Cl)[nH]c2c1 [Compound 206],EC50,[1],13.4 µM
same,EC50,[2],1.56 µM
same,EC50,[3],0.174 µM
Cc1cnc2nc(-c3cc(NC(=O)c4cncn4C)ccc3Cl)[nH]c2c1 [Compound 207],EC50,[1],> 50 µM
same,EC50,[2],> 25 µM
same,EC50,[3],> 25 µM
Cc1cnc2nc(-c3cc(NC(=O)c4cccnc4)ccc3Cl)[nH]c2c1 [Compound 208],EC50,[1],> 32.7 µM
same,EC50,[2],8.7 µM
same,EC50,[3],2.48 µM
Cc1csc(C(=O)Nc2ccc(Cl)c(-c3nc4ncc(C)cc4[nH]3)c2)c1 [Compound 209],EC50,[1],10.4 µM
same,EC50,[2],7.9 µM
same,EC50,[3],1.41 µM
Cc1cnc2nc(-c3cc(NC(=O)c4ccncc4)ccc3Cl)[nH]c2c1 [Compound 212],EC50,[1],22.5 µM
same,EC50,[2],6.6 µM
same,EC50,[3],2.65 µM
Cc1cnc2nc(-c3cc(NC(=O)c4ccnn4C)ccc3Cl)[nH]c2c1 [Compound 213],EC50,[1],> 48 µM
same,EC50,[2],> 25 µM
same,EC50,[3],> 25 µM
CCOC(=O)Nc1ccc(Cl)c(-c2nc3ncc(C)cc3[nH]2)c1 [Compound 217],EC50,[1],10.4 µM
same,EC50,[2],5.9 µM
same,EC50,[3],0.8 µM
Cc1cnc2nc(-c3cc(NC(=O)OCC(C)C)ccc3Cl)[nH]c2c1 [Compound 220],EC50,[1],17.3 µM
same,EC50,[2],7.4 µM
same,EC50,[3],1.66 µM
Cc1cnc2nc(-c3cc(NC(=O)OCc4ccccc4)ccc3Cl)[nH]c2c1 [Compound 223],EC50,[1],21.4 µM
same,EC50,[2],> 25 µM
same,EC50,[3],14.1 µM
COC(=O)Nc1ccc(Cl)c(-c2nc3ncc(C)cc3[nH]2)c1 [Compound 224],EC50,[1],11.1 µM
same,EC50,[2],18.7 µM
same,EC50,[3],2.61 µM
Cc1cnc2nc(-c3cc(NC(=O)OCC(F)(F)F)ccc3Cl)[nH]c2c1 [Compound 225],EC50,[1],> 50 µM
same,EC50,[2],> 25 µM
same,EC50,[3],> 25 µM
Cc1cnc2nc(-c3cc(NC(=O)N4CCCCC4)ccc3Cl)[nH]c2c1 [Compound 239],EC50,[1],> 35.6 µM
same,EC50,[2],13.9 µM
same,EC50,[3],2.06 µM

# From patent publication US9233961B2, “Compounds and compositions for the treatment of parasitic diseases” (Novartis AG, priority 2013, dated 2016)
